# In patent publication US20240368506A1, “Manufacturing a Non-Alcoholic Distilled Spirit and Functional Ingredient” (priority 2022, published 2024):
# Columns and labels:
# MAO A = biological target: T1, MAO A (Homo sapiens, UniProt P21397); assay: MAO A inhibitory activity of Don Julio Añejo or 40% ethanol spiked with terpenes; format: biochemical; settings: terpene at 0.5% (v/v) in tequila (40% ABV) and in 40% ethanol
# T1 sequence (P21397 1-527): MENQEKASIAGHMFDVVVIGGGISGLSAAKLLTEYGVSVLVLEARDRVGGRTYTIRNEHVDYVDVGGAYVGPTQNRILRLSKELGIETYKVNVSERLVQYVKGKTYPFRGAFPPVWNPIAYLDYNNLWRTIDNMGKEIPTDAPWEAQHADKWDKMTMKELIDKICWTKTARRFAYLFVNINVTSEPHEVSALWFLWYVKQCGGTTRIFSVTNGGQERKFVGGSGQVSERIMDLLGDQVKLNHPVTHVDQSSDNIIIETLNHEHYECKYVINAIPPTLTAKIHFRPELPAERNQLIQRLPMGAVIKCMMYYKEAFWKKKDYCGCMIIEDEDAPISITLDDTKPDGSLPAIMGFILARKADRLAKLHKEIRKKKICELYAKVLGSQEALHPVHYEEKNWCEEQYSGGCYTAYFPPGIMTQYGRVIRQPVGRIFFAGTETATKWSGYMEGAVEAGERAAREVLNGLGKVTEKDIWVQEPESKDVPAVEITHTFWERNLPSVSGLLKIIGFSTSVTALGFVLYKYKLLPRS
# Procedure: (§1) The effect terpenes on MAOI activity in tequila was evaluated in the experiment from Table 3. Terpenes were added to 40% ethanol and tequila (40% ABV) at 0.5%. (v/v) and assayed for MAO inhibitory activity.
# MAO B = biological target: T2, MAO B (Homo sapiens, UniProt P27338); assay: MAO B inhibitory activity of Don Julio Añejo or 40% ethanol spiked with terpenes; format: biochemical; settings: terpene at 0.5% (v/v) in tequila (40% ABV) and in 40% ethanol
# T2 sequence (P27338 1-520): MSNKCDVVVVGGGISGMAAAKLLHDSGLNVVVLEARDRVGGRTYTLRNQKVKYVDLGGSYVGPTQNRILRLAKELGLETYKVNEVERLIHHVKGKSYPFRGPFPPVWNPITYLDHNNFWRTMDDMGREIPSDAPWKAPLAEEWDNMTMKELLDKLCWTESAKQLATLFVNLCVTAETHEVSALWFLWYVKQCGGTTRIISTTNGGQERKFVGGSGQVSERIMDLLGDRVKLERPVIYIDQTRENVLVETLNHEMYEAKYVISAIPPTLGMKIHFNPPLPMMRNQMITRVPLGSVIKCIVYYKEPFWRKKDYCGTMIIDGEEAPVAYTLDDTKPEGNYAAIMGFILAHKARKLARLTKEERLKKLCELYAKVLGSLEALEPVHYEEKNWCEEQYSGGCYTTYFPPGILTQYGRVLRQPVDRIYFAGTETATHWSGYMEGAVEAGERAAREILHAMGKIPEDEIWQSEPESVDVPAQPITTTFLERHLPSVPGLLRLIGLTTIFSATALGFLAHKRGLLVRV
# Procedure: as §1
Compound,Δ % Inhibition MAO A (DJA + terpene) − (ETOH + terpene) (MAO A) [%],Δ % Inhibition MAO B (DJA + terpene) − (ETOH + terpene) (MAO B) [%]
C=C(C)[C@@H]1CCC2=CCC[C@@H](C)[C@]2(C)C1 [valencene],9,20
Geramol,4,9
